Molecules are shown by their SMILES. Starred links: 1 amine or outer side, 2 acyl side, 3 side chain; linkers in the order of their positions; H or OH if unused. Non-standard residues stand in square brackets, D forms with d. Residues, ends and D or L forms follow the SMILES beside them. Groups on a side chain read outwards from the residue. *: point of attachment. C20 diacid = O=C(O)CCCCCCCCCCCCCCCCCCC(=O)*; C18 diacid = O=C(O)CCCCCCCCCCCCCCCCC(=O)*; γGlu = O=C(O)[C@H](CCC(=O)[*:2])N[*:1]; αMeF = C[C@](N)(Cc1ccccc1)C(=O)O; AEEA = NCCOCCOCC(=O)O; Aib = CC(C)(N)C(=O)O

The target of experiment [1] is human glucagon receptor (hGCGR) (Homo sapiens, UniProt P47871). As to the kind of experiment: cAMP production (HTRF) in CHO cells expressing hGCGR. It is filed as cell-based. On the set-up: expressed in transfected cells. Conditions: Table 6, peptides modified at position 17; cAMP in CHO hGCGR cells; geometric mean; read-out: hGluc-R EC50. A digest of the protocol:
(§1)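 Read-out: HTRF cAMP (anti-cAMP cryptate donor, cAMP-d2 acceptor in conjugate/lysis buffer), converted to % Delta F and fitted by 4-parameter logistic for EC50. Cell densities were 1×10^5 cells/mL (hGLP-1R) or 2×10^5 cells/mL (hGCGR). Stimulation lasted 30 min at room temperature.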
Background: Cyclic AMP is a second messenger, typically raised through Gs and lowered through Gi signalling.

The target in experiment [2] is human GLP-1 receptor (hGLP-1R) (Homo sapiens, UniProt P43220). As to the kind of experiment: cAMP production (HTRF) in CHO cells expressing hGLP-1R. It is filed as cell-based. Conditions: for EC50: Table 6, peptides modified at position 17, cAMP in CHO hGLP-1R cells, geometric mean, read-out: hGLP-1R EC50; for % Relative Potency Ratio: Table 6, % GLP-1R activity relative to GLP-1 / % GlucR activity relative to glucagon. On the set-up: expressed in transfected cells. A digest of the protocol:
as §1

human glucagon receptor (hGCGR), sequence (P47871 26-477): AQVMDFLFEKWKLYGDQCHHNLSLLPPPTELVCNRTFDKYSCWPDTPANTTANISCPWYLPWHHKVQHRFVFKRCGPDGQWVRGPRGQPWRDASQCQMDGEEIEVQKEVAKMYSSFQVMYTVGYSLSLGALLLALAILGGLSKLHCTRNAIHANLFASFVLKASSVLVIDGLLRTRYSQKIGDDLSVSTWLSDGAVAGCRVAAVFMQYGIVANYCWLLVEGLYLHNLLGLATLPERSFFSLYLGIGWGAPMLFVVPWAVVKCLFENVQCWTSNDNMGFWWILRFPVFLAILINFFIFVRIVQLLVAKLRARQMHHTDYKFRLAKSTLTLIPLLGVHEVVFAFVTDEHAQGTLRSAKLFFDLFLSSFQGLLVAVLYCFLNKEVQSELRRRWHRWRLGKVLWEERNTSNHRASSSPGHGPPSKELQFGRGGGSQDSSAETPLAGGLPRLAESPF
human GLP-1 receptor (hGLP-1R), sequence (P43220 24-463): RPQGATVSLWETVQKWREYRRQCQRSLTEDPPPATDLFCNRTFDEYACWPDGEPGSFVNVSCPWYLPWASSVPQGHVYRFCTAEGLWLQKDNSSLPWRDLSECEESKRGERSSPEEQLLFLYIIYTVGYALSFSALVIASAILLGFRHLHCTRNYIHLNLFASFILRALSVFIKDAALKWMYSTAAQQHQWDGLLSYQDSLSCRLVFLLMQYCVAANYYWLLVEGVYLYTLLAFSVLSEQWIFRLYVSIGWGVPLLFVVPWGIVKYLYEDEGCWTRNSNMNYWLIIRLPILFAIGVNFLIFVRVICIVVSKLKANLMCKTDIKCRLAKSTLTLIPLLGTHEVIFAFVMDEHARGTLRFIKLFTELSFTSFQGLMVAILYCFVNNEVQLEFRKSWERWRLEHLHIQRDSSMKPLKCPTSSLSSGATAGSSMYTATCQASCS

With `CC(C)C[C@H](NC(=O)[C@H](Cc1c[nH]c2ccccc12)NC(=O)[C@H](C)NC(=O)[C@@H](NC(=O)[C@H](Cc1ccccc1)NC(=O)[C@H](CC(=O)O)NC(=O)[C@H](CCC(N)=O)NC(=O)[C@H](C)NC(=O)[C@H](CCCNC(=N)N)NC(=O)[C@H](CCCCNC(=O)COCCOCCNC(=O)COCCOCCNC(=O)CC[C@H](NC(=O)CCCCCCCCCCCCCCCCC(=O)O)C(=O)O)NC(=O)[C@@H](NC(=O)[C@H](CC(=O)O)NC(=O)[C@H](CC(C)C)NC(=O)[C@](C)(Cc1ccccc1)NC(=O)[C@H](CCCCN)NC(=O)[C@H](CO)NC(=O)[C@@H](NC(=O)[C@H](CC(=O)O)NC(=O)[C@H](CO)NC(=O)[C@@H](NC(=O)[C@H](Cc1ccccc1)NC(=O)[C@@H](NC(=O)CNC(=O)[C@H](CCC(N)=O)NC(=O)C(C)(C)NC(=O)[C@@H](N)Cc1c[nH]cn1)[C@@H](C)O)[C@@H](C)O)C(C)C)[C@@H](C)O)C(C)C)C(=O)N[C@@H](CCC(=O)O)C(=O)N[C@@H](C)C(=O)NCC(=O)NCC(=O)O` [Peptide 411] (H-H[Aib]QGTFTSDVSK[αMeF]LDTK([AEEA-AEEA-γGlu-C18 diacid])RAQDFVAWLEAGG-OH; N-terminus assumed), the EC50 (commonly the midpoint of the concentration-response curve) in experiment [1] came to 0.378 nM. For the same molecule, in experiment [2], the EC50 is 0.0981 nM and the “% Relative Potency Ratio” value is 7.6.
In the same order, the values of `CC(C)C[C@H](NC(=O)[C@H](Cc1c[nH]c2ccccc12)NC(=O)[C@H](C)NC(=O)[C@@H](NC(=O)[C@H](Cc1ccccc1)NC(=O)[C@H](CC(=O)O)NC(=O)[C@H](CCC(N)=O)NC(=O)[C@H](C)NC(=O)[C@H](CCCNC(=N)N)NC(=O)[C@H](CCCCNC(=O)COCCOCCNC(=O)COCCOCCNC(=O)CC[C@H](NC(=O)CCCCCCCCCCCCCCCCCCC(=O)O)C(=O)O)NC(=O)[C@@H](NC(=O)[C@H](CC(=O)O)NC(=O)[C@H](CC(C)C)NC(=O)[C@](C)(Cc1ccccc1)NC(=O)[C@H](CCCCN)NC(=O)[C@H](CO)NC(=O)[C@@H](NC(=O)[C@H](CC(=O)O)NC(=O)[C@H](CO)NC(=O)[C@@H](NC(=O)[C@H](Cc1ccccc1)NC(=O)[C@@H](NC(=O)CNC(=O)[C@H](CCC(N)=O)NC(=O)C(C)(C)NC(=O)[C@@H](N)Cc1c[nH]cn1)[C@@H](C)O)[C@@H](C)O)C(C)C)[C@@H](C)O)C(C)C)C(=O)N[C@@H](CCC(=O)O)C(=O)N[C@@H](C)C(=O)NCC(=O)NCC(=O)O` [Peptide 412] (H-H[Aib]QGTFTSDVSK[αMeF]LDTK([AEEA-AEEA-γGlu-C20 diacid])RAQDFVAWLEAGG-OH; N-terminus assumed) are 0.397 nM, 0.186 nM and 4.2.
On to `CC(C)C[C@H](NC(=O)[C@H](Cc1c[nH]c2ccccc12)NC(=O)[C@H](C)NC(=O)[C@@H](NC(=O)[C@H](Cc1ccccc1)NC(=O)[C@H](CC(=O)O)NC(=O)[C@H](CCC(N)=O)NC(=O)[C@H](C)NC(=O)[C@H](CCCNC(=N)N)NC(=O)[C@H](CCCCNC(=O)COCCOCCNC(=O)COCCOCCNC(=O)CC[C@H](NC(=O)CC[C@H](NC(=O)CCCCCCCCCCCCCCCCCCC(=O)O)C(=O)O)C(=O)O)NC(=O)[C@@H](NC(=O)[C@H](CC(=O)O)NC(=O)[C@H](CC(C)C)NC(=O)[C@](C)(Cc1ccccc1)NC(=O)[C@H](CCCCN)NC(=O)[C@H](CO)NC(=O)[C@@H](NC(=O)[C@H](CC(=O)O)NC(=O)[C@H](CO)NC(=O)[C@@H](NC(=O)[C@H](Cc1ccccc1)NC(=O)[C@@H](NC(=O)CNC(=O)[C@H](CCC(N)=O)NC(=O)C(C)(C)NC(=O)[C@@H](N)Cc1c[nH]cn1)[C@@H](C)O)[C@@H](C)O)C(C)C)[C@@H](C)O)C(C)C)C(=O)N[C@@H](CCC(=O)O)C(=O)N[C@@H](C)C(=O)NCC(=O)NCC(=O)O` [Peptide 413], for which the EC50 in experiment [1] came to 1.02 nM; in experiment [2] it was 0.406 nM. In addition, the “% Relative Potency Ratio” value in experiment [2] is on record as 5.0.
In the same order, the values of `CC(C)C[C@H](NC(=O)[C@H](Cc1c[nH]c2ccccc12)NC(=O)[C@H](CCCNC(=N)N)NC(=O)[C@@H](NC(=O)[C@H](Cc1ccccc1)NC(=O)[C@H](CC(=O)O)NC(=O)[C@H](CCCNC(=N)N)NC(=O)[C@H](C)NC(=O)[C@H](CCCNC(=N)N)NC(=O)[C@H](CCCCNC(=O)COCCOCCNC(=O)COCCOCCNC(=O)CC[C@H](NC(=O)CCCCCCCCCCCCCCCCC(=O)O)C(=O)O)NC(=O)[C@H](CCCCN)NC(=O)[C@H](CC(=O)O)NC(=O)[C@H](CC(C)C)NC(=O)[C@](C)(Cc1ccccc1)NC(=O)[C@H](CCCCN)NC(=O)[C@H](CO)NC(=O)[C@@H](NC(=O)[C@H](CC(=O)O)NC(=O)[C@H](CO)NC(=O)[C@@H](NC(=O)[C@H](Cc1ccccc1)NC(=O)[C@@H](NC(=O)CNC(=O)[C@H](CCC(N)=O)NC(=O)C(C)(C)NC(=O)[C@@H](N)Cc1c[nH]cn1)[C@@H](C)O)[C@@H](C)O)C(C)C)C(C)C)C(=O)N[C@@H](CC(C)C)C(=O)NC(C)(C)C(=O)N[C@@H](CCC(=O)O)C(=O)O` [Peptide 414] (H-H[Aib]QGTFTSDVSK[αMeF]LDKK([AEEA-AEEA-γGlu-C18 diacid])RARDFVRWLL[Aib]E-OH; N-terminus assumed) are 0.0269 nM, 0.0323 nM and 1.6.
In the same order, the values of `CC(C)C[C@H](NC(=O)[C@H](Cc1c[nH]c2ccccc12)NC(=O)[C@H](CCCNC(=N)N)NC(=O)[C@@H](NC(=O)[C@H](Cc1ccccc1)NC(=O)[C@H](CC(=O)O)NC(=O)[C@H](CCC(N)=O)NC(=O)[C@H](C)NC(=O)[C@H](CCCNC(=N)N)NC(=O)[C@H](CCCCNC(=O)COCCOCCNC(=O)COCCOCCNC(=O)CC[C@H](NC(=O)CCCCCCCCCCCCCCCCC(=O)O)C(=O)O)NC(=O)[C@H](CO)NC(=O)[C@H](CCC(=O)O)NC(=O)[C@H](CC(C)C)NC(=O)[C@](C)(Cc1ccccc1)NC(=O)[C@H](CCCCN)NC(=O)[C@H](CO)NC(=O)[C@@H](NC(=O)[C@H](CC(=O)O)NC(=O)[C@H](CO)NC(=O)[C@@H](NC(=O)[C@H](Cc1ccccc1)NC(=O)[C@@H](NC(=O)CNC(=O)[C@H](CCC(N)=O)NC(=O)C(C)(C)NC(=O)[C@@H](N)Cc1c[nH]cn1)[C@@H](C)O)[C@@H](C)O)C(C)C)C(C)C)C(=O)N[C@@H](CCC(=O)O)C(=O)N[C@@H](C)C(=O)NC(C)(C)C(=O)NCC(=O)O` [Peptide 415] (H-H[Aib]QGTFTSDVSK[αMeF]LESK([AEEA-AEEA-γGlu-C18 diacid])RAQDFVRWLEA[Aib]G-OH; N-terminus assumed) are 0.301 nM, 0.0147 nM and 40.6.
In the same order, the values of `CC(C)C[C@H](NC(=O)[C@H](Cc1c[nH]c2ccccc12)NC(=O)[C@H](CCCNC(=N)N)NC(=O)[C@@H](NC(=O)[C@H](Cc1ccccc1)NC(=O)[C@H](CC(=O)O)NC(=O)[C@H](CCC(N)=O)NC(=O)[C@H](C)NC(=O)[C@H](CCCNC(=N)N)NC(=O)[C@H](CCCCNC(=O)COCCOCCNC(=O)COCCOCCNC(=O)CC[C@H](NC(=O)CCCCCCCCCCCCCCCCCCC(=O)O)C(=O)O)NC(=O)[C@H](CO)NC(=O)[C@H](CCC(=O)O)NC(=O)[C@H](CC(C)C)NC(=O)[C@](C)(Cc1ccccc1)NC(=O)[C@H](CCCCN)NC(=O)[C@H](CO)NC(=O)[C@@H](NC(=O)[C@H](CC(=O)O)NC(=O)[C@H](CO)NC(=O)[C@@H](NC(=O)[C@H](Cc1ccccc1)NC(=O)[C@@H](NC(=O)CNC(=O)[C@H](CCC(N)=O)NC(=O)C(C)(C)NC(=O)[C@@H](N)Cc1c[nH]cn1)[C@@H](C)O)[C@@H](C)O)C(C)C)C(C)C)C(=O)N[C@@H](CCC(=O)O)C(=O)N[C@@H](C)C(=O)NC(C)(C)C(=O)NCC(=O)O` [Peptide 416] (H-H[Aib]QGTFTSDVSK[αMeF]LESK([AEEA-AEEA-γGlu-C20 diacid])RAQDFVRWLEA[Aib]G-OH; N-terminus assumed) are 0.581 nM, 0.0677 nM and 17.0.
For `CC(C)C[C@H](NC(=O)[C@H](Cc1c[nH]c2ccccc12)NC(=O)[C@H](C)NC(=O)[C@@H](NC(=O)[C@H](Cc1ccccc1)NC(=O)[C@H](CC(=O)O)NC(=O)[C@H](CCC(N)=O)NC(=O)[C@H](C)NC(=O)[C@H](CCCNC(=N)N)NC(=O)[C@H](CCCCNC(=O)COCCOCCNC(=O)COCCOCCNC(=O)CC[C@H](NC(=O)CC[C@H](NC(=O)CCCCCCCCCCCCCCCCC(=O)O)C(=O)O)C(=O)O)NC(=O)[C@@H](NC(=O)[C@H](CC(=O)O)NC(=O)[C@H](CC(C)C)NC(=O)[C@](C)(Cc1ccccc1)NC(=O)[C@H](CCCCN)NC(=O)[C@H](CO)NC(=O)[C@@H](NC(=O)[C@H](CC(=O)O)NC(=O)[C@H](CO)NC(=O)[C@@H](NC(=O)[C@H](Cc1ccccc1)NC(=O)[C@@H](NC(=O)CNC(=O)[C@H](CCC(N)=O)NC(=O)C(C)(C)NC(=O)[C@@H](N)Cc1c[nH]cn1)[C@@H](C)O)[C@@H](C)O)C(C)C)[C@@H](C)O)C(C)C)C(=O)N[C@@H](CCC(=O)O)C(=O)N[C@@H](C)C(=O)NC(C)(C)C(=O)NCC(=O)O` [Peptide 417] (H-H[Aib]QGTFTSDVSK[αMeF]LDTK([AEEA-AEEA-γGlu-γGlu-C18 diacid])RAQDFVAWLEA[Aib]G-OH; N-terminus assumed), the EC50 in experiment [1] was found to be 0.0164 nM. For the same molecule, in experiment [2], the EC50 worked out at 0.0339 nM and the “% Relative Potency Ratio” value was found to be 1.0.

For the origin of these results see patent US20250353891A1 (MEDIMMUNE LIMITED, priority 2022, published 2025).
